The record followed here is patent publication US9187472B2 (AbbVie Inc., priority 2012, dated 2015).

pIC50: −log10 of the molar value.

Assay [1] concerns PC3 cells. Kind of assay: NAMPT Cell Proliferation Assay. It counts as cell-based. Conditions: Homo sapiens, PC-3, 120 h, 5 days incubation, cell viability by Cell Titer Glo. An outline of the steps: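 Seed PC3 at 500 cells/well (RPMI, 10% HI-FBS), attach overnight; add compound, 10-fold series 10 μM → 1×10^−5 μM; incubate 5 d, 37° C/5% CO2; luminescent viability readout; fit % inhibition sigmoidally for IC50.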

The target of assay [2] is NAMPT (Homo sapiens, UniProt P43490). Kind of assay: TR-FRET Binding Assay of NAMPT with PRPP. The note with it: with 200 μM PRPP and 2.5 mM ATP; 2 nM NAMPT, 2 nM probe, 16 hours equilibration. An outline of the steps: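 TR-FRET probe-displacement binding with 2 nM NAMPT, 2 nM probe and 1 nM Tb-anti-His antibody, run in the presence of 200 μM PRPP and 2.5 mM ATP at 2% DMSO. Equilibrated 16 hours before reading so test compounds could undergo enzymatic modification.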

Assay [3] addresses NAMPT (human, recombinant, C-terminally His-tagged) (Homo sapiens, UniProt P43490). The assay can be described thus: Time-Resolved Fluorescence Resonance Energy Transfer (TR-FRET) Binding Assay of NAMPT. Conditions: without substrates; 6.8 nM NAMPT, 200 nM probe, 3 hours equilibration. A digest of the protocol:
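11-pt half-log compound series; final 6.8 nM NAMPT, 200 nM OG488 nicotinamide-competitive probe, 1 nM Tb-anti-His Ab, 2% DMSO, HEPES pH 7.5/NaCl/MgCl2/DTT/glycerol buffer. 3 h RT equilibration. Em520/Em495 ratio (Ex 337 nm), control-normalized, 4-parameter fit → IC50.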
For orientation: In TR-FRET formats the signal depends on donor and acceptor labels being close together.

NAMPT, sequence (P43490 whole entry): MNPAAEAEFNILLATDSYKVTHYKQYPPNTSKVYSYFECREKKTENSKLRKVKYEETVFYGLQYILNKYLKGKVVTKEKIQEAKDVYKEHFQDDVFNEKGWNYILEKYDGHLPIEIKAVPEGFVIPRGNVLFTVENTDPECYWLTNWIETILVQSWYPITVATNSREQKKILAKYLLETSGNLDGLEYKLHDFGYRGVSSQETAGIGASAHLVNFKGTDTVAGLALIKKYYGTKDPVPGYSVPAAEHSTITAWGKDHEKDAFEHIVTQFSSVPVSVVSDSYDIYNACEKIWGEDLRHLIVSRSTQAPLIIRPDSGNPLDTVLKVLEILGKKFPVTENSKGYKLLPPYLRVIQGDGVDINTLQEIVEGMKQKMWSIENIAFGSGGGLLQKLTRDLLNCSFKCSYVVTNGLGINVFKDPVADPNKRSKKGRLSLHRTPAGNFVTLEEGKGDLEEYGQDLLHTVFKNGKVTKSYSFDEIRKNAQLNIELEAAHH
NAMPT (human, recombinant, C-terminally His-tagged), sequence (P43490 whole entry): as above

The pIC50 is the IC50 on a negative log10 scale, so that one unit is a factor of ten. On to `COCC(C)C(=O)N1CCC(Oc2ccc(C(=O)NCc3ccc4nccn4c3)cc2)CC1` (stereo not drawn) [Example 169, N-(imidazo[1,2-a]pyridin-6-ylmethyl)-4-{[1-(3-methoxy-2-methylpropanoyl)piperidin-4-yl]oxy}benzamide], for which the pIC50 in assay [1] was 7.57; in assay [2] it was 8.37; in assay [3], 6.43.
The matching figures for `O=C(NCc1ccn2ccnc2c1)c1ccc(C2CCN(C(=O)c3ccc(F)cc3F)CC2)cc1` [Example 506, 4-[1-(2,4-difluorobenzoyl)piperidin-4-yl]-N-(imidazo[1,2-a]pyridin-7-ylmethyl)benzamide]: 7.74, 9.39 and 6.61.
The matching figures for `O=C(NCc1ccn2ccnc2c1)c1ccc(C2CCN(C(=O)c3ccco3)C2)s1` (stereo not drawn) [Example 783, 5-[1-(furan-2-ylcarbonyl)pyrrolidin-3-yl]-N-(imidazo[1,2-a]pyridin-7-ylmethyl)thiophene-2-carboxamide]: 8.01, 9.04 and 7.19.
On to `CC(C)C(=O)N1CCC(c2ccc(NC(=O)NCc3ccn4ccnc4c3)cc2)CC1` [Example 228, 1-(imidazo[1,2-a]pyridin-7-ylmethyl)-3-{4-[1-(2-methylpropanoyl)piperidin-4-yl]phenyl}urea], for which the results for the pIC50 in assay [1], in assay [2] and in assay [3] were 8.07, 9.62 and 7.31, respectively.
The matching figures for `O=C(NCc1ccn2ccnc2c1)c1cnc(C2=CCN(C(=O)c3ccccc3)CC2)s1` [Example 297, 2-(1-benzoyl-1,2,3,6-tetrahydropyridin-4-yl)-N-(imidazo[1,2-a]pyridin-7-ylmethyl)-1,3-thiazole-5-carboxamide]: 7.45, 9.54 and 6.75.
Take `O=C(NCc1ccn2ccnc2c1)c1ccc(C2=CCN(S(=O)(=O)c3ccccc3)CC2)o1` [Example 801, N-(imidazo[1,2-a]pyridin-7-ylmethyl)-5-[1-(phenylsulfonyl)-1,2,3,6-tetrahydropyridin-4-yl]furan-2-carboxamide]: the values for the pIC50 in assay [1], in assay [2] and in assay [3] were 7.24, 9.00 and 6.06, respectively.
As for `CC(C)Cn1cc(-c2ccc(C(=O)NCc3ccn4ccnc4c3)s2)cn1` [Example 174, N-(imidazo[1,2-a]pyridin-7-ylmethyl)-5-[1-(2-methylpropyl)-1H-pyrazol-4-yl]thiophene-2-carboxamide], the pIC50 in assay [1] was 8.95; in assay [2] it was 9.77; in assay [3], 7.55.
Turning to `O=C(NCc1ccn2ccnc2c1)c1ccc(C2CCN(C(=O)c3cccc(F)c3)C2)cc1` (stereo not drawn) [Example 591, 4-[1-(3-fluorobenzoyl)pyrrolidin-3-yl]-N-(imidazo[1,2-a]pyridin-7-ylmethyl)benzamide], the pIC50 was 7.71 in assay [1], 9.12 in assay [2] and 6.86 in assay [3].
With `CC(C)(O)C(=O)N1CCC(Oc2ccc(C(=O)NCc3ccc4nccn4c3)cc2)CC1` [Example 166, 4-{[1-(2-hydroxy-2-methylpropanoyl)piperidin-4-yl]oxy}-N-(imidazo[1,2-a]pyridin-6-ylmethyl)benzamide], the results for the pIC50 in assay [1], in assay [2] and in assay [3] were 7.01, 8.74 and 5.84, respectively.
The matching figures for `CC(C)C(=O)N1CC[C@H](Oc2ccc(C(=O)NCc3ccn4ccnc4c3)cc2)C1` [Example 351, N-(imidazo[1,2-a]pyridin-7-ylmethyl)-4-{[(3S)-1-(2-methylpropanoyl)pyrrolidin-3-yl]oxy}benzamide]: 5.09, 9.10 and 5.08.
With `CN1CCC(C(=O)Nc2ccc(NC(=O)Nc3ccc4nccn4c3)cc2)CC1` [Example 48], the pIC50 in assay [1] is 5.27; in assay [2] it was 9.77; in assay [3] it was less than 5.00.
For `O=C(NCc1ccn2ccnc2c1)Nc1ccc(C2CCN(C(=O)c3ccccc3)C2)cc1` (stereo not drawn) [Example 383, 1-[4-(1-benzoylpyrrolidin-3-yl)phenyl]-3-(imidazo[1,2-a]pyridin-7-ylmethyl)urea], the negative logarithm of the IC50 (pIC50) in assay [1] is 7.88; in assay [2] it was 9.65; in assay [3] it was 7.31.
As for `O=C(NCc1ccc2nccn2c1)c1cnc(N(CC2CCCO2)C(=O)Cc2nnn[nH]2)s1` (stereo not drawn) [Example 132, N-(imidazo[1,2-a]pyridin-6-ylmethyl)-2-[(tetrahydrofuran-2-ylmethyl)(1H-tetrazol-5-ylacetyl)amino]-1,3-thiazole-5-carboxamide], the pIC50 was 6.28 in assay [1], 7.88 in assay [2] and 6.81 in assay [3].
For `O=C(NCc1ccn2ccnc2c1)c1ccc(C2CCN(C(=O)c3ccc(Cl)cc3)CC2)cc1` [Example 529, 4-[1-(4-chlorobenzoyl)piperidin-4-yl]-N-(imidazo[1,2-a]pyridin-7-ylmethyl)benzamide], the values for the pIC50 in assay [1], in assay [2] and in assay [3] were 6.64, 9.55 and 6.61, respectively.
On to `O=C(NCc1ccn2ccnc2c1)c1ccc(C2CCN(C(=O)c3ccccc3C(F)(F)F)CC2)cc1` [Example 708, N-(imidazo[1,2-a]pyridin-7-ylmethyl)-4-{1-[2-(trifluoromethyl)benzoyl]piperidin-4-yl}benzamide], for which the pIC50 in assay [1] was 8.22; in assay [2], 9.05; in assay [3] it was 7.22.
Turning to `O=C(NCc1ccn2ccnc2c1)c1ccc(C2CCN(C(=O)c3cccs3)CC2)cc1` [Example 503, N-(imidazo[1,2-a]pyridin-7-ylmethyl)-4-[1-(thiophen-2-ylcarbonyl)piperidin-4-yl]benzamide], the results for the pIC50 in assay [1], in assay [2] and in assay [3] were 8.38, 9.56 and 7.27, respectively.
With `O=C(NCc1ccn2ccnc2c1)c1ccc(-c2cnn(CCN3CCNCC3)c2)s1` [Example 809, N-(imidazo[1,2-a]pyridin-7-ylmethyl)-5-{1-[2-(piperazin-1-yl)ethyl]-1H-pyrazol-4-yl}thiophene-2-carboxamide], the figures for the pIC50 in assay [1], in assay [2] and in assay [3] were 7.48, 9.20 and 7.02, respectively.
The matching figures for `CC(C)C(=O)N1CCC(c2ncc(C(=O)NCc3ccn4ccnc4c3)s2)CC1` [Example 543, N-(imidazo[1,2-a]pyridin-7-ylmethyl)-2-[1-(2-methylpropanoyl)piperidin-4-yl]-1,3-thiazole-5-carboxamide]: 6.41, 9.42 and 5.83.
As to `O=C(NCc1ccn2ccnc2c1)c1ccc(N2C[C@@H](O)CC2=O)s1` [Example 268, 5-[(4S)-4-hydroxy-2-oxopyrrolidin-1-yl]-N-(imidazo[1,2-a]pyridin-7-ylmethyl)thiophene-2-carboxamide], the pIC50 is 5.26 in assay [1], 9.77 in assay [2] and 6.12 in assay [3].
Regarding `O=C(NCc1ccn2ccnc2c1)Nc1ccc(O[C@@H]2CCN(C(=O)[C@H]3CCCO3)C2)cc1` [Example 335, 1-(imidazo[1,2-a]pyridin-7-ylmethyl)-3-[4-({(3R)-1-[(2R)-tetrahydrofuran-2-ylcarbonyl]pyrrolidin-3-yl}oxy)phenyl]urea], the pIC50 in assay [1] was 7.01; in assay [2], 9.45; in assay [3] it was 6.20.
